In brackets after ≈: the same amount, converted by molar mass.
What was measured:
[1] = tested on: Pseudomonas aeruginosa PST1; assay: MIC, serial dilution on nutrient agar; format: cell-based; details: PST1, 18 h
[2] = tested on: Staphylococcus aureus Smith; assay: MIC, serial dilution on nutrient agar; format: cell-based; details: 37° C., 18 hours
[3] = tested on: Pseudomonas aeruginosa TI-13; assay: MIC, serial dilution on nutrient agar; format: cell-based; details: TI13, 18 h
[4] = tested on: Escherichia coli K-12 LA 290 R55; assay: microbe, parasite or virus in culture; format: cell-based; details: K12LA290R55, 18 h
[5] = tested on: Escherichia coli K-12 R5; assay: microbe, parasite or virus in culture; format: cell-based; details: K12R5, 18 h
[6] = tested on: Providencia Pv 16; assay: MIC, serial dilution on nutrient agar; format: cell-based; details: PV16, 18 h
[7] = tested on: Pseudomonas aeruginosa K-Ps102; assay: MIC, serial dilution on nutrient agar; format: cell-based; details: KPS102, nutrient agar, 37° C., 18 hours, read-out: MIC
[8] = tested on: Pseudomonas aeruginosa No. 12; assay: MIC, serial dilution on nutrient agar; format: cell-based; details: NO.12, nutrient agar, 37° C., 18 hours, read-out: MIC
[9] = tested on: Bacillus cereus ATCC 10702; assay: MIC, serial dilution on nutrient agar; format: cell-based; details: ATCC10702, nutrient agar, 37° C., 18 hours, read-out: MIC
[10] = tested on: Proteus rettgeri GN466; assay: MIC, serial dilution on nutrient agar; format: cell-based; details: Providencia rettgeri, GN466, 18 h
[11] = tested on: Bacillus subtilis PCI 219; assay: MIC, serial dilution on nutrient agar; format: cell-based; details: PCI219, 37° C., 18 hours
[12] = tested on: Escherichia coli K-12 LA 290 R56; assay: microbe, parasite or virus in culture; format: cell-based; details: K12LA290R56, 18 h
[13] = tested on: Pseudomonas aeruginosa ROS134/PU21; assay: microbe, parasite or virus in culture; format: cell-based; details: ROS134/PU21, 18 h
[14] = tested on: Staphylococcus epidermidis 109; assay: MIC, serial dilution on nutrient agar; format: cell-based; details: Staphylococcus epidermidis, 109, 18 h
[15] = tested on: Staphylococcus aureus APO1; assay: MIC, serial dilution on nutrient agar; format: cell-based; details: APO1, 18 h
[16] = tested on: Pseudomonas aeruginosa B-13; assay: MIC, serial dilution on nutrient agar; format: cell-based; details: B13, 18 h
[17] = tested on: Shigella dysenteriae JS11910; assay: MIC, serial dilution on nutrient agar; format: cell-based; details: JS11910, 18 h
[18] = tested on: Escherichia coli K-12; assay: MIC, serial dilution on nutrient agar; format: cell-based; details: K12, 18 h
[19] = intravenous LD50 in mice; details: mouse, in vivo, estimated
[20] = tested on: Escherichia coli W677; assay: MIC, serial dilution on nutrient agar; format: cell-based; details: W677, 18 h
[21] = tested on: Escherichia coli K-12 R 388; assay: MIC, serial dilution on nutrient agar; format: cell-based; details: K12R388, 18 h
[22] = tested on: Pseudomonas aeruginosa A3; assay: MIC, serial dilution on nutrient agar; format: cell-based; details: A3, 18 h
[23] = tested on: Salmonella typhi F63; assay: MIC, serial dilution on nutrient agar; format: cell-based; details: Salmonella enterica, 18 h
[24] = tested on: Bacillus subtilis NRRL B-558; assay: MIC, serial dilution on nutrient agar; format: cell-based; details: NRRLB558, 37° C., 18 hours
[25] = tested on: Proteus rettgeri GN311; assay: MIC, serial dilution on nutrient agar; format: cell-based; details: Providencia rettgeri, GN311, 18 h
[26] = tested on: Pseudomonas aeruginosa 99; assay: MIC, serial dilution on nutrient agar; format: cell-based; details: Pseudomonas aeruginosa, 99, 18 h
[27] = tested on: Sarcina lutea PCI 1001; assay: MIC, serial dilution on nutrient agar; format: cell-based; details: Micrococcus luteus, PCI1001, 18 h
[28] = oto-toxicity; details: compounds of this invention
[29] = tested on: Mycrococcus flavus FDA 16; assay: MIC, serial dilution on nutrient agar; format: cell-based; details: 18 h
[30] = tested on: Escherichia coli NIHJ; assay: MIC, serial dilution on nutrient agar; format: cell-based; details: 18 h
[31] = tested on: Pseudomonas aeruginosa H11; assay: MIC, serial dilution on nutrient agar; format: cell-based; details: H11, 18 h
[32] = tested on: Mycobacterium smegmatis ATCC 607; assay: MIC, serial dilution on nutrient agar; format: cell-based; details: Mycolicibacterium smegmatis, ATCC607, 18 h
[33] = tested on: Escherichia coli K-12 LA 290 R64; assay: MIC, serial dilution on nutrient agar; format: cell-based; details: K12LA290R64, 18 h
[34] = tested on: Klebsiella pneumoniae 22 #3038; assay: MIC, serial dilution on nutrient agar; format: cell-based; details: 18 h
[35] = tested on: Corynebacterium bovis 1810; assay: MIC, serial dilution on nutrient agar; format: cell-based; details: Corynebacterium bovis, 1810, 18 h
[36] = tested on: Escherichia coli JR66/W677; assay: MIC, serial dilution on nutrient agar; format: cell-based; details: JR66/W677, 18 h
[37] = tested on: Salmonella enteritidis 1891; assay: MIC, serial dilution on nutrient agar; format: cell-based; details: Salmonella enterica, nutrient agar, 37° C., 18 hours, read-out: MIC
[38] = tested on: Pseudomonas aeruginosa H9; assay: MIC, serial dilution on nutrient agar; format: cell-based; details: H9, 18 h
[39] = tested on: Bacillus anthracis; assay: microbe, parasite or virus in culture; format: cell-based; details: 18 h
[40] = tested on: Escherichia coli K-12 1410 R81; assay: MIC, serial dilution on nutrient agar; format: cell-based; details: K121410R81, 18 h
[41] = tested on: Escherichia coli JR255; assay: microbe, parasite or virus in culture; format: cell-based; details: JR255, 18 h
[42] = tested on: Escherichia coli K-12 ML 1410; assay: MIC, serial dilution on nutrient agar; format: cell-based; details: K12ML1410, 18 h

`C[C@@H]1C[C@H](N)[C@@H](O)[C@@H](O[C@@H]2[C@@H](O)[C@H](O[C@H]3O[C@H](CN)CC[C@H]3N)[C@@H](N)C[C@H]2N)O1` [4",6"-DDKB, 4",6"-dideoxydibekacin] gave an MIC [1] of over 100 µg/mL, an MIC [2] of under 0.2 µg/mL and an MIC [3] of 100 µg/mL (≈ 238 µM). For the same compound, the MIC [4] was 100 µg/mL (≈ 238 µM), the MIC [5] was over 100 µg/mL and the MIC [6] was over 100 µg/mL. It also gave an MIC [7] of 25 µg/mL (≈ 59.6 µM), an MIC [8] of 12.5 µg/mL (≈ 29.8 µM) and an MIC [9] of 6.25 µg/mL (≈ 14.9 µM). For the same compound, the MIC [10] was 1.56 µg/mL (≈ 3.72 µM), the MIC [11] was under 0.2 µg/mL and the MIC [12] was 50 µg/mL (≈ 119 µM). It also gave an MIC [13] of over 100 µg/mL, an MIC [14] of 3.13 µg/mL (≈ 7.46 µM) and an MIC [15] of 3.13 µg/mL (≈ 7.46 µM). The MIC [16] was over 100 µg/mL, the MIC [17] was 3.13 µg/mL (≈ 7.46 µM) and the MIC [18] was 1.56 µg/mL (≈ 3.72 µM). For the same compound, the LD50 [19] was over 60 mg/kg, the MIC [20] was 0.78 µg/mL (≈ 1.86 µM) and the MIC [21] was 1.56 µg/mL (≈ 3.72 µM). For the same compound, the MIC [22] was 3.13 µg/mL (≈ 7.46 µM), the MIC [23] was 0.78 µg/mL (≈ 1.86 µM) and the MIC [24] was under 0.2 µg/mL. For the same compound, the MIC [25] was 3.13 µg/mL (≈ 7.46 µM), the MIC [26] was over 100 µg/mL and the MIC [27] was 50 µg/mL (≈ 119 µM). The oto-toxicity [28] was “low oto-toxicity”, the MIC [29] was 50 µg/mL (≈ 119 µM) and the MIC [30] was 1.56 µg/mL (≈ 3.72 µM). It also gave an MIC [31] of 100 µg/mL (≈ 238 µM), an MIC [32] of 1.56 µg/mL (≈ 3.72 µM) and an MIC [33] of 25 µg/mL (≈ 59.6 µM). For the same compound, the MIC [34] was 100 µg/mL (≈ 238 µM), the MIC [35] was 50 µg/mL (≈ 119 µM) and the MIC [36] was 100 µg/mL (≈ 238 µM). For the same compound, the MIC [37] was 6.25 µg/mL (≈ 14.9 µM), the MIC [38] was 100 µg/mL (≈ 238 µM) and the MIC [39] was under 0.2 µg/mL. For the same compound, the MIC [40] was 1.56 µg/mL (≈ 3.72 µM), the MIC [41] was 100 µg/mL (≈ 238 µM) and the MIC [42] was 1.56 µg/mL (≈ 3.72 µM).
